Data set [1] is described as follows: in vivo. To be noted: female, Yucatan miniature swine, pig, im, 20 IU.
Description: (§1) Next, a crossover pharmacokinetic study with 24-h washout was conducted to determine oxytocin plasma levels after SL administration and to compare with the standard IM route in female mini pigs, chosen due to the similarity in oral cavity architecture with humans. Ten anesthetized female, non-pregnant Yucatan miniature swine, Sus scrofa 3 to 5 months old and weighing 15 to 20 kg were administered an oxytocin FDT under the tongue. For the control, mini pigs received 20 IU of oxytocin in a 1 mL IM injection into the right hind limb. […] Blood was collected from both groups at several time points up to 60 min after administration, via previously implanted vascular access ports, and plasma was obtained for analysis. A commercial enzyme-linked immunosorbent assay kit was used to detect oxytocin in the plasma.
(§2) The pharmacokinetic data were derived from ten non-pregnant female Yucatan miniature swine, Sus scrofa, aged 3
(§3) to 5 months, weighing 15 to 20 kg (Sinclair Bio-Resources, LLC, Auxvasse, MO, USA). Ten experimental pigs
(§4) received a sublingual (SL) tablet with 400 IU of oxytocin, and ten received SL tablets with 600 IU oxytocin. Ten
(§5) control pigs received 20 IU of oxytocin in a 1 mL intramuscular (IM) injection.
(§6) Animals were anesthetized with dexmedetomidine (0.04 mg/kg) mixed with midazolam (0.2 mg/kg), and anesthesia […]
The nature of data set [2]: Saliva stability study. Type of data set: in vitro ADME. Conditions: pooled human saliva, 37 °C, 1 hour, HPLC, content at 1 hour divided by content at time zero, two aliquots per time point. The protocol:
Since the oxytocin FDTs are intended to be administered under the tongue, we confirmed the stability of oxytocin in saliva prior to initiation of the pharmacokinetic study. The FDTs were incubated in pooled human saliva maintained at 37 °C for an hour along with unformulated oxytocin as a control. […]
the resting TEER measurement from the final TEER measurement. A reduction in the TEER indicates increased permeability of oral tissue after treatment.
Disintegration testing: Non-sink method
50, 60, 90 seconds) for complete disintegration. […]
aliquoted into four different vials. […]
immediately. […] The other two
HPLC mobile phase liquid and centrifuged immediately. The supernatants were loaded for HPLC analysis at the […]
1-hour divided by the content at time zero.
Test material Route of administration (IU/animal) Dose administered
Formulation 4 Sublingual 600 1 tablet
Formulation 4 Sublingual 400 1 tablet
Control Intramuscular 20 1 mL of 20 IU/mL
The FDTs were administered […]
once on days 1, 3, 8, 15, and 18. […]
aid in dissolution of the tablet. […]
right hind limb (biceps femoris) once on day 22.

Details of data set [3]: method as in earlier work. Conditions: women, buccal route, levels greater than 1000 IU, induction of labor; ref [10]; cited from earlier work.
The conditions of data set [4]: in vivo.
Description: as §1, §2, §3, §4, §5, §6

Structures are written as SMILES.

For `CC[C@H](C)[C@@H]1NC(=O)[C@H](Cc2ccc(O)cc2)NC(=O)[C@@H](N)CSSC[C@@H](C(=O)N2CCC[C@H]2C(=O)N[C@@H](CC(C)C)C(=O)NCC(N)=O)NC(=O)[C@H](CC(N)=O)NC(=O)[C@H](CCC(N)=O)NC1=O` [oxytocin], the maximum concentration (Cmax) in data set [1] amounted to 0.612 ng/mL. Moreover, the “Proteolytic degradation of oxytocin in saliva” value in data set [2] is reported as “none to minimal proteolytic degradation”. Besides, the Adverse events entry in data set [3] is “without any adverse events”. In data set [4], the “Plasma levels of oxytocin in unanesthetized versus anesthetized pigs” value is listed as “significantly higher”.

A word on the Cmax: it is the maximum level reached in the sampled fluid or tissue.

Source of the values: publication PMC5937893, “Heat-stable sublingual oxytocin tablets as a potential needle-free approach for preventing postpartum hemorrhage in low-resource settings” (Drug Delivery and Translational Research, 2018).
